# Assay results reported in patent US8673864B2, “Mangiferin-berberine salt, manufacturing method and use thereof” (Hainan Deze Drug Research Co., Ltd., priority 2009, dated 2014).
# Experiments:
# [1] = tested on: human hepatoma cell line Bel-7402; assay: Chemosensitizing effect on tumor cells (MTT cytotoxicity); assay type: cell-based; conditions: 72 h
# Method: Mangiferin-berberine salt (BM) was obtained by the method of embodiments as above. Cisplatin (DDP), adriamycin (ADM) and taxol were purchased from the market. Samples were dissolved in DMSO.
# DMSO group, BM group (20 μmol/L), DDP group (1 μmol/L), ADM group (1 μmol/L), TAXOL group (1 μmol/L), BM (20 μmol/L)+DDP (1 μmol/L) group, BM (20 μmol/L)+ADM (1 μmol/L) group, BM (20 μmol/L)+TAXOL (1 μmol/L) group.
# In accordance with 10^3-10^4/well, cultured human hepatoma cell line Bel-7402 200 μl per well were inoculated into 96-well cell culture plate, the samples were added after 24 hours. For those groups which are composed of the two samples, after mangiferin-berberine salt and cells were cultured together for 3 h, DDP or ADM or TAXOL were added, cultured for 72 h. Finally cell toxicity was determined by tetrazolium salt reduction (MTT). Experiments were repeated twice.
# [2] = Solubility in different pH water (hydrochloric acid adjusted); assay type: physicochemical
# Method: (§1) As the pH of human gastric juice is 1-3, the above properties of mangiferin-berberine salt can be well dissolved in gastric juice, which is very conducive to the absorption of drugs in the body. Any ratio mangiferin-berberine composition can not increase the solubility in the acidic water.
# Take pure water; add hydrochloric acid to adjust pH to 1 and 3 and 5 separately. Take the water 50 ml of different pH; weigh up accurately 50 mg mangiferin-berberine salt powder, put into the 50 ml water as above, shake and observe dissolved phenomena.
# Take the water 50 ml of different pH 1 and 3; weigh up accurately 100 mg mangiferin-berberine salt powder, put into the 50 ml water as above, shake and observed dissolved phenomena.
# Take the water 50 ml of pH 1; weigh up accurately 200 mg mangiferin-berberine salt powder, put into the 50 ml water as above, shake and observed dissolved situation.
# Take the water 50 ml of pH 1 for three copies; weigh up accurately 50 mg mangiferin and berberine composition powder (the molecular ratio of mangiferin and berberine is 1:1, 1:3, 1:5), put into the 50 ml water as above separately, shake and observed dissolved phenomena. The trace of the mangiferin and berberine compositions that include all ratios as above can dissolve.
# dementia rats = assay: Effect on Aβ1-40-induced dementia rats (Morris water maze); assay type: in vivo; conditions: versus model group
# Method: SD male rats, SPF, 250˜300 g, free drinking water and eating food, before the experiment in a lab environment adapted for 2-3d, the temperature of the laboratory was controlled at 25° C., relative humidity was 40%-80%.
# Sham surgery rats group (control group, n=10) were injected the saline of an equal volume in the hippocampus; model rats group (n=10) were treated by Aβ1-40; mangiferin-berberine salt low dose group (20 mg/kg, n=10, BML); mangiferin-berberine salt middle dose group (40 mg/kg, n=10, BMM); mangiferin-berberine salt high dose group (80 mg/kg, n=10, BMH).
# Test samples or vehicle control was given orally for 4 weeks, one week before modeled. Maze training period, administrated in 0.5 h before training.
# Injected […] into the hippocampus of rats to establish animal model of AD. As follows: […]
# Spatial learning and memory tests: Morris water maze method. Platform located in the northeast quadrant of the middle of the maze; the water level is 1.5 cm above the platform; the temperature of water was maintained at 19° C.˜20° C.; rats were continuously training for 5d, twice a day; we set the maximum swimming time of 70s, recorded the time that rats found the platform (latent period, EL) by stopwatch.
# AMPK = assay: Activation of AMPK in L6 cells (Western blot, phospho-AMPK Thr172); assay type: cell-based, rat; conditions: 1.25-5 μmol/L, 3 h, dose-dependent
# Method: (§2) Mangiferin-berberine salt that is obtained by the method of embodiments as above dissolves in DMSO. Before use it is diluted by culture medium or HBS. The ultimate concentration of DMSO is less than 0.2%.
# (§3) The rat L6 cell line was obtained from the ATCC. HG-DMEM was from GIBCO™. Fetal bovine serum (FBS) was purchased from Hyclone. Anti-AMPK, anti-ACC, antiphospho-AMPK (Thr172), antiphospho-ACC (ser79) polyclonal antibodies were from Cell Signal Technology.
# (§4) L6 cells were grown in HG-DMEM containing 10% (v/v) FBS, 100 units/ml penicillin and 100 U/ml streptomycin in a humidified atmosphere of 5% CO2 at 37° C. When the cells covered 60%, the medium was switched to HG-DMEM with 2% FBS and the culture medium was replaced every two days until that the cells covered about 90%.
# (§5) Cells in 6-well plates were starved in serum-free HG-DMEM, and then samples were added into serum-free HG-DMEM; the concentration of DMSO is 0.2%. The samples incubated for 3 h in the cells. […]
# (§6) Samples were electrophoresed on 10% SDS-polyacrylamide gels, and transferred to PVDF membranes under 100V and 1-2 h in the transmembrane instrument. Protein in the gel was transferred to […] under the state of half dry, and the band was determined by Ponceau S (Ponceau S). […]
# [3] = Precipitation of the acidic solutions at room temperature within 24 hours; assay type: physicochemical; conditions: for precipitate on standing: room temperature, 12 hours
# Method: as §1
# Mark all above the mangiferin-berberine salt solutions, places them at room temperature, observe the phenomenon within 24 hours.
# KK-ay mice = assay: Effect on KK-ay mice (glucose, lipid, insulin, UAER, liver enzymes); assay type: in vivo; conditions: 40 mg/kg orally for 30 days, versus model group
# Method: Mangiferin-berberine salt was obtained by the method of examples as above. Mangiferin-berberine salt was suspended with 3‰ sodium carboxymethyl cellulose before use. Rosiglitazone hydrochloride was purchased from Zhejiang wanma pharmaceutical Co., Ltd.
# KK-ay mice, 16 weeks age, male.
# KK-ay mice group (n=10); mangiferin-berberine salt low dose group (20 mg/kg, n=10, BML); mangiferin-berberine salt middle dose group (40 mg/kg, n=10, BMM); mangiferin-berberine salt high dose group (80 mg/kg, n=10), BMH metformin group[500 mg/kg, n=10]. Test samples or vehicle control was given orally for 30 days. KK-ay mice group were given vehicle.
# The blood specimens were taken at the end of the experiment. Plasma glucose (GLU, mmol/L), lipid [triglycerides (TG, mmol/L), total cholesterol (TC, mmol/L), low density lipoprotein (LDL, mmol/L), high density lipoprotein (HDL, mmol/L)], liver enzyme [ALT(U/L) and AST(U/L)] were determined using GF-D800 semi-auto chemist which was purchased from Shandong Gaomi Caihong Analytical Instrument Co., Ltd.
# Insulin: Radioimmunoassays (RIA), γ counter counts. insulin RIA Kit was purchased from Shandong Weifang City three-dimensional (3V) Biological Company. Urinary albumin. Collected urine for 24 h by metabolic cages, and recorded the output of urine. Urine was centrifuged, supernatant was taken, it was saved at −80° C. Free urinary were collected weekly Monday 13:00 by tail raise reflection. Assay urinary albumin by competitive ELISA, calculate the urinary albumin excretion rate (urinary albumin excretion rate=urinary albumin concentration (mg/L)×urine volume (ml)/total collection time (minutes)=mg/min, UAER), the units of figure is mg/24 h.
# The results have been calculated as mean±SD ( x±SD) and comparisons of the data have been done by t-test.
# [4] = Solubility of mangiferin-berberine salt in water; assay type: physicochemical
# Method: Its chemical structure is as follows:
# 5 mg mangiferin-berberine salt powder which is weighed up accurately is put into 50 ml distilled water under 25° C.±2° C., the solution is shaken strongly 30 seconds every 5 minutes. There are solute particles in 30 minutes. The water solubility of mangiferin-berberine salt is less than 0.1 mg/ml. Mangiferin-berberine salt is hardly solubility substance in water.
# ACC = assay: Phosphorylation of ACC in L6 cells (Western blot, phospho-ACC ser79); assay type: cell-based, rat; conditions: 1.25-5 μmol/L, 3 h, dose-dependent
# Method: as §2, §3, §4, §5, §6
# rheumatoid arthritis rat = assay: Effect on rheumatoid arthritis rat (collagen type II model), foot swelling; assay type: in vivo, rats; conditions: versus model group
# Method: (§7) Wistar rats, female, 100±20 g. Acid-soluble Bovine-derived collagen type II (Collagen II) and Freund's incomplete adjuvant was purchased from Sigma. TNF-α kit was purchased from Nanjing Jiancheng Biological Engineering Institute.
# (§8) The Acid-soluble Bovine-derived collagen type II (C II) with Freund's incomplete adjuvant, was made up to 2.5 mg/ml emulsion, Every rat was injected emulsion containing […] by intradermal in the right rear paw in order to inflame.
# (§9) Normal rats group (control group, n=10); model rats group (n=10); mangiferin-berberine salt low dose group (10 mg/kg, n=10, BML); mangiferin-berberine salt middle dose group (20 mg/kg, n=10, BMM); mangiferin-berberine salt high dose group (40 mg/kg, n=10, BMH); Dexamethasone Sodium Phosphate group (0.1 mg/kg, Dexa, n=10).
# (§10) Two weeks after primary immunization, test samples or vehicle control was given orally for 4 weeks. Normal and model rats group were given the saline of an equal volume.
# Foot swelling: Measurement the volume of right hind foot by capillary enlarge measure method, calculated swelling growth percentage [(value after administration−value before administration)/value before administration]×100%.
# TNF-α = assay: Serum TNF-α in rheumatoid arthritis rat (ELISA); assay type: in vivo, rats; conditions: versus model group
# Method: as §7, §8, §9, §10
# 4.2 Cytokines: The blood specimens were taken from femoral artery at the end of the experiment, and serum was extracted, then frozen. TNF-α was measured according to the instructions of ELISA kit.
# [5] = Accelerated stability test, content by HPLC; assay type: physicochemical
# Method: Put several parts of mangiferin-berberine salt into glass bottles, seal, set inside drug stability chamber, set accelerated testing conditions to: 40° C.±2° C./75% RH+5% RH. At 0 and 1 and 2 months, sample, determine the content of mangiferin-berberine salt by HPLC.
# [6] = high dose (40 mg/kg) orally for 4 weeks
# [7] = middle dose (20 mg/kg) orally for 4 weeks
substance,measurement,setting,value
mangiferin-berberine salt,cytotoxicity combined with ADM versus ADM alone,"[1]; Bel-7402, BM 20 μmol/L 3 h before ADM 1 μmol/L",significantly higher
same,cytotoxicity combined with DDP versus DDP alone,"[1]; Bel-7402, BM 20 μmol/L 3 h before DDP 1 μmol/L",significantly higher
same,cytotoxicity combined with TAXOL versus TAXOL alone,"[1]; Bel-7402, BM 20 μmol/L 3 h before TAXOL 1 μmol/L",significantly higher
same,dissolved phenomena,"[2]; 50 mg in 50 ml water, pH 1",dissolved rapidly in the water of pH 1 in a few seconds
same,dissolved phenomena,"[2]; 50 mg in 50 ml water, pH 3",dissolved in the water of pH 3 in five minutes
same,dissolved phenomena,"[2]; 50 mg in 50 ml water, pH 5",did not dissolve completely
same,dissolved phenomena,"[2]; 100 mg in 50 ml water, pH 1",dissolved in the water of pH 1 in a minute
same,dissolved phenomena,"[2]; 100 mg in 50 ml water, pH 3",did not dissolve completely
same,dissolved situation,"[2]; 200 mg in 50 ml water, pH 1","can dissolve in the water of pH 1, but there is precipitation soon in the solution"
same,solubility in strong acid solution,"[2]; strong acid solution, the smaller the pH, the better it dissolves",dissolves in strong acid solution
same,"EL (latent period) of fifth day, Morris water maze",dementia rats; high dose (80 mg/kg) orally for 4 weeks,significantly reduced
same,"EL (latent period) of fifth day, Morris water maze",dementia rats; middle dose (40 mg/kg) orally for 4 weeks,significantly reduced
same,phosphorylation of AMPK,AMPK,increases significantly
same,precipitate on standing,"[3]; pH 1, 4 mg/ml",more precipitate
same,precipitation in acid solution,"[3]; pH 1-3, concentration below 2 mg/ml, within 12 hours",precipitation is only traces
same,precipitation in acid solution,"[3]; pH 1-3, concentration greater than 4 mg/ml",precipitates soon after it dissolves
same,precipitate on standing,"[3]; pH 1 and 3, 1 mg/ml and 2 mg/ml",trace precipitate
same,INS,KK-ay mice,significantly improves
same,ISI,KK-ay mice,significantly improves
same,UAER,KK-ay mice,significantly improves
same,blood glucose,KK-ay mice,significantly improves
same,lipid,KK-ay mice,significantly improves
same,liver enzymes,KK-ay mice,significantly improves
same,water solubility,"[4]; 5 mg in 50 ml distilled water, 25° C.±2° C., 30 minutes",less than 0.1 mg/ml
same,solubility in boiling water,[4]; boiling water,slightly soluble in boiling water
same,solubility in water,[4]; water,Almost insoluble in water
same,phosphorylation of ACC,ACC,increases significantly
same,paw swelling,rheumatoid arthritis rat; [6],significantly inhibited
same,paw swelling,rheumatoid arthritis rat; [7],significantly inhibited
same,secretion of cytokine TNF-α,TNF-α; [6],significantly inhibited
same,secretion of cytokine TNF-α,TNF-α; [7],significantly inhibited
same,content of mangiferin-berberine salt by HPLC,"[5]; 40° C.±2° C./75% RH+5% RH, sealed glass bottles, 0, 1 and 2 months",do not significantly change
same,shelf time at room temperature,[5]; suggested from the accelerated test,> 1 year
